# Data published in article PMC5843817, “Preclinical validations of [^18F]FPyPEGCBT-c(RGDfK): a ^18F-labelled RGD peptide prepared by ligation of 2-cyanobenzothiazole and 1,2-aminothiol to image angiogenesis” (EJNMMI Radiopharmacy and Chemistry, 2016).
# Tests used:
# [1] = test system: αVβ3, αVβ5 and α5β1 integrins on U-87 MG cancer cells; assay: [^125I]echistatin displacement cell binding assay, U-87 MG; design: species or system human; conditions: U-87 MG cells; displacement of [^125I]echistatin; 1 h, 37 °C
# Method: (§1) In vitro integrin-binding of FPyPEGCBT-c(RGDfK) was evaluated using a standard displacement assay of [^125I]echistatin. U-87 MG and SKOV-3 cells were seeded in 96-well plates 24 h prior to the experiment (U-87 MG, 6 × 10^4 cells per well; SKOV-3, 3 × 10^4 cells per well). On the day of the experiment, the cells were washed twice with binding buffer (20 mM Tris pH 7.4, 150 mM NaCl, 2 mM CaCl2, 1 mM MgCl2, 1 mM MnCl2, 0.1 % BSA), then co-incubated for 1 h at 37 °C in binding buffer with 370 Bq/well [^125I]echistatin (Perkin Elmer, Schwerzenbach, Switzerland) and a concentration range (10^−9 to 10^−4 M) of FPyPEGCBT-c(RGDfK) or c(RGDfV) (PeptaNova, Sandhausen, Germany) as a reference peptide. Cells were then washed three times with binding buffer and lysed in 1 M NaOH. The cell-associated radioactivity was measured in a Wizard^2 2470 γ-counter (Perkin Elmer). The IC50 (Inhibitory Concentration of 50 %) values were calculated by fitting the data by nonlinear regression using GraphPad Prism (GraphPad software, La Jolla, CA, USA).
# (§2) Fig. 2 Displacement of [^125I]echistatin by FPyPEGCBT-c(RGDfK). U-87 MG and SKOV-3 cancer cells were co-incubated for 1 h in 96-well plates with 370 Bq/well [^125I]echistatin and a concentration range (10^−9 to 10^−4 M) of FPyPEGCBT-c(RGDfK) or c(RGDfV). After lysis, the cell-associated radioactivity was measured in a γ-counter. […]
# [2] = test system: αVβ3, αVβ5 and α5β1 integrins on SKOV-3 cancer cells; assay: [^125I]echistatin displacement cell binding assay, SKOV-3; design: species or system human; conditions: SKOV-3 cells; displacement of [^125I]echistatin; 1 h, 37 °C
# Method: as §1, §2
substance,measurement,setting,value
c(RGDfV),IC50,[1],600 nM
same,IC50,[2],259 ± 2 nM
